Measurements published in BigSolDB 2.1.

O=C(O)CCP(=O)([O-])c1ccccc1.[Na+]
solubility (mole fraction)
Conditions | 293.15 K | 298.15 K | 303.15 K | 308.15 K | 313.15 K | 318.15 K | 323.15 K | 328.15 K | 333.15 K | 343.15 K
in acetic acid | 0.0169 | 0.0205 | 0.0225 | 0.0264 | 0.0283 | 0.0312 | 0.0357 | 0.0404 | 0.0471 | 0.062
in acetone | 7e-05 | 0.00011 | 0.00016 | 0.00024 | 0.00035 | 0.00051 | 0.00075 | – | – | –
in ethanol | 0.00065 | 0.00076 | 0.00095 | 0.00106 | 0.00122 | 0.00166 | 0.00199 | 0.00223 | 0.00273 | 0.00413
in ethyl acetate | 0.00039 | 0.00051 | 0.000685 | 0.00096 | 0.00117 | 0.00165 | 0.00204 | 0.00285 | 0.00384 | 0.00602
in methanol | 0.00612 | 0.00671 | 0.00719 | 0.00779 | 0.00831 | 0.009 | 0.00993 | – | – | –
in water | 0.0196 | 0.0201 | 0.0214 | 0.0222 | 0.0232 | 0.0248 | 0.0263 | 0.0277 | 0.0295 | 0.0316

O=C([O-])CCP(=O)([O-])c1ccccc1.[Na+].[Na+]
solubility (mole fraction)
Conditions | 293.15 K | 298.15 K | 303.15 K | 308.15 K | 313.15 K | 318.15 K | 323.15 K | 328.15 K | 333.15 K | 343.15 K
in acetic acid | 0.000543 | 0.000554 | 0.000569 | 0.000581 | 0.000603 | 0.000626 | 0.000644 | 0.000663 | 0.000703 | 0.000742
in acetone | 3.66e-05 | 3.89e-05 | 4.13e-05 | 4.39e-05 | 4.62e-05 | 4.83e-05 | 5.24e-05 | – | – | –
in ethanol | 7.03e-05 | 9.7e-05 | 0.000138 | 0.000197 | 0.000264 | 0.000352 | 0.000505 | 0.000728 | 0.000926 | 0.00164
in methanol | 2.2e-05 | 2.26e-05 | 2.28e-05 | 2.3e-05 | 2.34e-05 | 2.4e-05 | 2.44e-05 | – | – | –
in water | 0.000904 | 0.000906 | 0.000908 | 0.000909 | 0.000911 | 0.000912 | 0.000913 | 0.000915 | 0.000916 | 0.000918
